Source: ChEMBL document CHEMBL3351810, “[(11)C-carbonyl]CEP-32496: radiosynthesis, biodistribution and PET study of brain uptake in P-gp/BCRP knockout mice” (Bioorg Med Chem Lett, 2014)

Key:
[1] = test system: Liver; assay: Biodistribution in mouse liver at 8.4 MBq/0.1 ml, iv after 1 min by PET imaging analysis; format: ADME, organism-based; conditions: in vivo
[2] = test system: Pancreas; assay: Biodistribution in mouse pancreas at 8.4 MBq/0.1 ml, iv after 30 mins by PET imaging analysis; format: ADME, organism-based; conditions: in vivo, 0.5 h
[3] = test system: Heart; assay: Biodistribution in mouse heart at 8.4 MBq/0.1 ml, iv after 30 mins by PET imaging analysis; format: ADME, organism-based; conditions: in vivo, 0.5 h
[4] = test system: Liver; assay: Biodistribution in mouse liver at 8.4 MBq/0.1 ml, iv after 60 mins by PET imaging analysis; format: ADME, organism-based; conditions: in vivo, 1 h
[5] = test system: Kidney; assay: Biodistribution in mouse kidney at 8.4 MBq/0.1 ml, iv after 30 mins by PET imaging analysis; format: ADME, organism-based; conditions: in vivo, 0.5 h
[6] = test system: Mus musculus; assay: Biodistribution in mouse small intestine at 8.4 MBq/0.1 ml, iv after 1 min by PET imaging analysis; format: ADME, organism-based; conditions: in vivo
[7] = test system: Spleen; assay: Biodistribution in mouse spleen at 8.4 MBq/0.1 ml, iv after 5 mins by PET imaging analysis; format: ADME, organism-based; conditions: in vivo
[8] = test system: Pancreas; assay: Biodistribution in mouse pancreas at 8.4 MBq/0.1 ml, iv after 1 min by PET imaging analysis; format: ADME, organism-based; conditions: in vivo
[9] = test system: Brain; assay: Ratio of AUC (0 to 90 mins) in P-gp/BCRP knockout mouse brain to AUC (0 to 90 mins) in wild type mouse brain; conditions: in vivo
[10] = test system: Blood; assay: Biodistribution in mouse blood at 8.4 MBq/0.1 ml, iv after 60 mins by PET imaging analysis; format: ADME, organism-based; conditions: in vivo, 1 h
[11] = test system: Kidney; assay: Biodistribution in mouse kidney at 8.4 MBq/0.1 ml, iv after 1 min by PET imaging analysis; format: ADME, organism-based; conditions: in vivo
[12] = test system: Muscle tissue; assay: Biodistribution in mouse muscle at 8.4 MBq/0.1 ml, iv after 15 mins by PET imaging analysis; format: ADME, organism-based; conditions: in vivo, 0.25 h
[13] = test system: Kidney; assay: Biodistribution in mouse kidney at 8.4 MBq/0.1 ml, iv after 5 mins by PET imaging analysis; format: ADME, organism-based; conditions: in vivo
[14] = test system: Heart; assay: Biodistribution in mouse heart at 8.4 MBq/0.1 ml, iv after 15 mins by PET imaging analysis; format: ADME, organism-based; conditions: in vivo, 0.25 h
[15] = test system: Brain; assay: Biodistribution in mouse brain at 8.4 MBq/0.1 ml, iv after 60 mins by PET imaging analysis; format: ADME, organism-based; conditions: in vivo, 1 h
[16] = test system: Blood; assay: Biodistribution in mouse blood at 8.4 MBq/0.1 ml, iv after 15 mins by PET imaging analysis; format: ADME, organism-based; conditions: in vivo, 0.25 h
[17] = test system: Brain; assay: Biodistribution in mouse brain at 8.4 MBq/0.1 ml, iv after 5 mins by PET imaging analysis; format: ADME, organism-based; conditions: in vivo
[18] = test system: Mus musculus; assay: Biodistribution in mouse large intestine at 8.4 MBq/0.1 ml, iv after 5 mins by PET imaging analysis; format: ADME, organism-based; conditions: in vivo
[19] = test system: Blood; assay: Biodistribution in mouse blood at 8.4 MBq/0.1 ml, iv after 5 mins by PET imaging analysis; format: ADME, organism-based; conditions: in vivo
[20] = test system: Kidney; assay: Biodistribution in mouse kidney at 8.4 MBq/0.1 ml, iv after 60 mins by PET imaging analysis; format: ADME, organism-based; conditions: in vivo, 1 h
[21] = test system: Pancreas; assay: Biodistribution in mouse pancreas at 8.4 MBq/0.1 ml, iv after 15 mins by PET imaging analysis; format: ADME, organism-based; conditions: in vivo, 0.25 h
[22] = test system: Brain; assay: Biodistribution in P-gp/BCRP knockout mouse brain by PET imaging analysis; format: ADME, organism-based; conditions: in vivo
[23] = test system: Lung; assay: Biodistribution in mouse lung at 8.4 MBq/0.1 ml, iv after 60 mins by PET imaging analysis; format: ADME, organism-based; conditions: in vivo, 1 h
[24] = test system: Muscle tissue; assay: Biodistribution in mouse muscle at 8.4 MBq/0.1 ml, iv after 60 mins by PET imaging analysis; format: ADME, organism-based; conditions: in vivo, 1 h
[25] = test system: Lung; assay: Biodistribution in mouse lung at 8.4 MBq/0.1 ml, iv after 15 mins by PET imaging analysis; format: ADME, organism-based; conditions: in vivo, 0.25 h
[26] = test system: Lung; assay: Biodistribution in mouse lung at 8.4 MBq/0.1 ml, iv after 5 mins by PET imaging analysis; format: ADME, organism-based; conditions: in vivo
[27] = test system: Spleen; assay: Biodistribution in mouse spleen at 8.4 MBq/0.1 ml, iv after 30 mins by PET imaging analysis; format: ADME, organism-based; conditions: in vivo, 0.5 h
[28] = test system: Liver; assay: Biodistribution in mouse liver at 8.4 MBq/0.1 ml, iv after 5 mins by PET imaging analysis; format: ADME, organism-based; conditions: in vivo
[29] = test system: Muscle tissue; assay: Biodistribution in mouse muscle at 8.4 MBq/0.1 ml, iv after 1 min by PET imaging analysis; format: ADME, organism-based; conditions: in vivo
[30] = test system: Brain; assay: Biodistribution in mouse brain at 8.4 MBq/0.1 ml, iv after 1 min by PET imaging analysis; format: ADME, organism-based; conditions: in vivo
[31] = test system: Liver; assay: Biodistribution in mouse liver at 8.4 MBq/0.1 ml, iv after 15 mins by PET imaging analysis; format: ADME, organism-based; conditions: in vivo, 0.25 h
[32] = test system: Lung; assay: Biodistribution in mouse lung at 8.4 MBq/0.1 ml, iv after 1 min by PET imaging analysis; format: ADME, organism-based; conditions: in vivo
[33] = test system: Spleen; assay: Biodistribution in mouse spleen at 8.4 MBq/0.1 ml, iv after 15 mins by PET imaging analysis; format: ADME, organism-based; conditions: in vivo, 0.25 h
[34] = test system: Liver; assay: Biodistribution in mouse liver at 8.4 MBq/0.1 ml, iv after 30 mins by PET imaging analysis; format: ADME, organism-based; conditions: in vivo, 0.5 h
[35] = test system: Lung; assay: Biodistribution in mouse lung at 8.4 MBq/0.1 ml, iv after 30 mins by PET imaging analysis; format: ADME, organism-based; conditions: in vivo, 0.5 h
[36] = test system: Mus musculus; assay: Biodistribution in mouse small intestine at 8.4 MBq/0.1 ml, iv after 5 mins by PET imaging analysis; format: ADME, organism-based; conditions: in vivo
[37] = test system: Brain; assay: Ratio of drug uptake in P-gp/BCRP knockout mouse brain to wild type mouse brain; format: ADME; conditions: in vivo
[38] = test system: Brain; assay: Biodistribution in mouse brain at 8.4 MBq/0.1 ml, iv after 15 mins by PET imaging analysis; format: ADME, organism-based; conditions: in vivo, 0.25 h
[39] = test system: Heart; assay: Biodistribution in mouse heart at 8.4 MBq/0.1 ml, iv after 1 min by PET imaging analysis; format: ADME, organism-based; conditions: in vivo
[40] = test system: Muscle tissue; assay: Biodistribution in mouse muscle at 8.4 MBq/0.1 ml, iv after 5 mins by PET imaging analysis; format: ADME, organism-based; conditions: in vivo
[41] = test system: Brain; assay: Biodistribution in mouse brain at 8.4 MBq/0.1 ml, iv after 30 mins by PET imaging analysis; format: ADME, organism-based; conditions: in vivo, 0.5 h
[42] = test system: Heart; assay: Biodistribution in mouse heart at 8.4 MBq/0.1 ml, iv after 5 mins by PET imaging analysis; format: ADME, organism-based; conditions: in vivo
[43] = test system: Mus musculus; assay: Biodistribution in mouse large intestine at 8.4 MBq/0.1 ml, iv after 30 mins by PET imaging analysis; format: ADME, organism-based; conditions: in vivo, 0.5 h
[44] = test system: Mus musculus; assay: Biodistribution in mouse large intestine at 8.4 MBq/0.1 ml, iv after 15 mins by PET imaging analysis; format: ADME, organism-based; conditions: in vivo, 0.25 h
[45] = test system: Mus musculus; assay: Biodistribution in mouse small intestine at 8.4 MBq/0.1 ml, iv after 15 mins by PET imaging analysis; format: ADME, organism-based; conditions: in vivo, 0.25 h
[46] = test system: Blood; assay: Biodistribution in mouse blood at 8.4 MBq/0.1 ml, iv after 30 mins by PET imaging analysis; format: ADME, organism-based; conditions: in vivo, 0.5 h
[47] = test system: Blood; assay: Biodistribution in mouse blood at 8.4 MBq/0.1 ml, iv after 1 min by PET imaging analysis; format: ADME, organism-based; conditions: in vivo
[48] = test system: Heart; assay: Biodistribution in mouse heart at 8.4 MBq/0.1 ml, iv after 60 mins by PET imaging analysis; format: ADME, organism-based; conditions: in vivo, 1 h
[49] = test system: Brain; assay: Biodistribution in wild type mouse brain by PET imaging analysis; format: ADME, organism-based; conditions: in vivo
[50] = test system: Mus musculus; assay: Biodistribution in mouse large intestine at 8.4 MBq/0.1 ml, iv after 1 min by PET imaging analysis; format: ADME, organism-based; conditions: in vivo
[51] = test system: Kidney; assay: Biodistribution in mouse kidney at 8.4 MBq/0.1 ml, iv after 15 mins by PET imaging analysis; format: ADME, organism-based; conditions: in vivo, 0.25 h
[52] = test system: Mus musculus; assay: Biodistribution in mouse small intestine at 8.4 MBq/0.1 ml, iv after 30 mins by PET imaging analysis; format: ADME, organism-based; conditions: in vivo, 0.5 h
[53] = test system: Mus musculus; assay: Biodistribution in mouse large intestine at 8.4 MBq/0.1 ml, iv after 60 mins by PET imaging analysis; format: ADME, organism-based; conditions: in vivo, 1 h
[54] = test system: Pancreas; assay: Biodistribution in mouse pancreas at 8.4 MBq/0.1 ml, iv after 60 mins by PET imaging analysis; format: ADME, organism-based; conditions: in vivo, 1 h
[55] = test system: Spleen; assay: Biodistribution in mouse spleen at 8.4 MBq/0.1 ml, iv after 1 min by PET imaging analysis; format: ADME, organism-based; conditions: in vivo
[56] = test system: Pancreas; assay: Biodistribution in mouse pancreas at 8.4 MBq/0.1 ml, iv after 5 mins by PET imaging analysis; format: ADME, organism-based; conditions: in vivo
[57] = test system: Muscle tissue; assay: Biodistribution in mouse muscle at 8.4 MBq/0.1 ml, iv after 30 mins by PET imaging analysis; format: ADME, organism-based; conditions: in vivo, 0.5 h
[58] = test system: Mus musculus; assay: Biodistribution in mouse small intestine at 8.4 MBq/0.1 ml, iv after 60 mins by PET imaging analysis; format: ADME, organism-based; conditions: in vivo, 1 h
[59] = test system: Spleen; assay: Biodistribution in mouse spleen at 8.4 MBq/0.1 ml, iv after 60 mins by PET imaging analysis; format: ADME, organism-based; conditions: in vivo, 1 h

COc1cc2ncnc(Oc3cccc(N[11C](=O)Nc4cc(C(C)(C)C(F)(F)F)on4)c3)c2cc1OC.Cl
Drug uptake [1]: 17.18 % ID/g
Drug uptake [2]: 3.94 % ID/g
Drug uptake [3]: 3.08 % ID/g
Drug uptake [4]: 12.69 % ID/g
Drug uptake [5]: 7.44 % ID/g
Drug uptake [6]: 5.92 % ID/g
Drug uptake [7]: 2.05 % ID/g
Drug uptake [8]: 2.96 % ID/g
Ratio AUC [9]: 8
Drug uptake [10]: 0.61 % ID/g
Drug uptake [11]: 12.33 % ID/g
Drug uptake [12]: 1.6 % ID/g
Drug uptake [13]: 8.36 % ID/g
Drug uptake [14]: 3.56 % ID/g
Drug uptake [15]: 0.08 % ID/g
Drug uptake [16]: 0.95 % ID/g
Drug uptake [17]: 0.1 % ID/g
Drug uptake [18]: 0.76 % ID/g
Drug uptake [19]: 0.99 % ID/g
Drug uptake [20]: 4.91 % ID/g
Drug uptake [21]: 3.52 % ID/g
Drug uptake [22]: Active
Drug uptake [23]: 2.24 % ID/g
Drug uptake [24]: 1.06 % ID/g
Drug uptake [25]: 3.76 % ID/g
Drug uptake [26]: 4.75 % ID/g
Drug uptake [27]: 2.03 % ID/g
Drug uptake [28]: 15.3 % ID/g
Drug uptake [29]: 2.37 % ID/g
Drug uptake [30]: 0.21 % ID/g
Drug uptake [31]: 17.4 % ID/g
Drug uptake [32]: 14.3 % ID/g
Drug uptake [33]: 2.05 % ID/g
Drug uptake [34]: 18.42 % ID/g
Drug uptake [35]: 3.34 % ID/g
Drug uptake [36]: 14.31 % ID/g
Ratio [37]: 24
Drug uptake [38]: 0.11 % ID/g
Drug uptake [39]: 11.25 % ID/g
Drug uptake [40]: 1.52 % ID/g
Drug uptake [41]: 0.12 % ID/g
Drug uptake [42]: 4.43 % ID/g
Drug uptake [43]: 1.69 % ID/g
Drug uptake [44]: 1.01 % ID/g
Drug uptake [45]: 22.18 % ID/g
Drug uptake [46]: 0.87 % ID/g
Drug uptake [47]: 3.14 % ID/g
Drug uptake [48]: 1.98 % ID/g
Drug uptake [49]: Active
Drug uptake [50]: 0.81 % ID/g
Drug uptake [51]: 7.68 % ID/g
Drug uptake [52]: 25.4 % ID/g
Drug uptake [53]: 1.98 % ID/g
Drug uptake [54]: 2.66 % ID/g
Drug uptake [55]: 3.92 % ID/g
Drug uptake [56]: 2.77 % ID/g
Drug uptake [57]: 1.54 % ID/g
Drug uptake [58]: 21.23 % ID/g
Drug uptake [59]: 1.36 % ID/g
